Measured values reported in ChEMBL document CHEMBL5518226, “A Vancomycin-Templated DNA-Encoded Library for Combating Drug-Resistant Bacteria” (2024).
Converted amounts (≈) assume the structure as drawn. The source made the active and inactive calls. The calls are words filed in the database; no cut-off is given here.

Key:
Enterococcus faecalis [1] = experiment: Antibacterial activity against Enterococcus faecalis clinical isolate 20-11 assessed as inhibition of bacterial growth incubated for 24 hrs by CLSI protocol based broth microdilution method; assay type: functional
Enterococcus faecalis [2] = experiment: Antibacterial activity against vancomycin resistant Enterococcus faecalis clinical isolate 20-1 assessed as inhibition of bacterial growth incubated for 24 hrs by CLSI protocol based broth microdilution method; assay type: functional
Streptococcus pneumoniae [3] = experiment: Antibacterial activity against penicillin susceptible Streptococcus pneumoniae clinical isolate 20-1 assessed as inhibition of bacterial growth incubated for 24 hrs by CLSI protocol based broth microdilution method; assay type: functional
Streptococcus pneumoniae [4] = experiment: Antibacterial activity against penicillin resistant Streptococcus pneumoniae clinical isolate 20-1 assessed as inhibition of bacterial growth incubated for 24 hrs by CLSI protocol based broth microdilution method; assay type: functional
Streptococcus pneumoniae [5] = experiment: Antibacterial activity against Streptococcus pneumoniae ATCC49619 assessed as inhibition of bacterial growth incubated for 24 hrs by CLSI protocol based broth microdilution method; assay type: functional
Staphylococcus aureus [6] = experiment: Antibacterial activity against vancomycin-intermediate resistant Staphylococcus aureus Mu50 assessed as reduction in bacterial survival at 0.1 mg/ml; assay type: functional, organism-based
Enterococcus faecium [7] = experiment: Antibacterial activity against vancomycin-resistant Enterococcus faecium 0649 assessed as reduction in bacterial survival at 3 mg/ml; assay type: functional, organism-based
Staphylococcus aureus [8] = experiment: Antibacterial activity against vancomycin-intermediate resistant Staphylococcus aureus Mu50 assessed as reduction in bacterial survival at 0.25 to 3 mg/ml; assay type: functional, organism-based; settings: dose 0.25-3 mg/ml
Staphylococcus aureus [9] = experiment: Antibacterial activity against vancomycin-intermediate resistant Staphylococcus aureus Mu50 assessed as reduction in fluorescence at 10 uM incubated for 1 hrs by fluorescence microscopic analysis; assay type: functional, organism-based
Staphylococcus aureus [10] = experiment: Antibacterial activity against methicillin sensitive Staphylococcus aureus Newman assessed as inhibition of bacterial growth incubated for 24 hrs by CLSI protocol based broth microdilution method; assay type: functional
Staphylococcus aureus [11] = experiment: Antibacterial activity against methicillin sensitive Staphylococcus aureus clinical isolate 20-45 assessed as inhibition of bacterial growth incubated for 24 hrs by CLSI protocol based broth microdilution method; assay type: functional
Staphylococcus aureus [12] = experiment: Antibacterial activity against methicillin sensitive Staphylococcus aureus ATCC29213 assessed as inhibition of bacterial growth incubated for 24 hrs by CLSI protocol based broth microdilution method; assay type: functional
Staphylococcus aureus [13] = experiment: Antibacterial activity against methicillin resistant Staphylococcus aureus USA300 assessed as inhibition of bacterial growth incubated for 24 hrs by CLSI protocol based broth microdilution method; assay type: functional
Staphylococcus aureus [14] = experiment: Antibacterial activity against methicillin resistant Staphylococcus aureus clinical isolate 20-34 assessed as inhibition of bacterial growth incubated for 24 hrs by CLSI protocol based broth microdilution method; assay type: functional
Staphylococcus aureus [15] = experiment: Antibacterial activity against vancomycin-intermediate resistant Staphylococcus aureus ATCC700699 assessed as inhibition of bacterial growth incubated for 24 hrs by CLSI protocol based broth microdilution method; assay type: functional
Staphylococcus aureus [16] = experiment: Antibacterial activity against linezolid resistant Staphylococcus aureus clinical isolate 20-1 assessed as inhibition of bacterial growth incubated for 24 hrs by CLSI protocol based broth microdilution method; assay type: functional
[17] = test system: Staphylococcus epidermidis; experiment: Antibacterial activity against methicillin sensitive Staphylococcus epidermidis clinical isolate 20-1 assessed as inhibition of bacterial growth incubated for 24 hrs by CLSI protocol based broth microdilution method; assay type: functional
[18] = test system: Staphylococcus epidermidis; experiment: Antibacterial activity against methicillin resistant Staphylococcus epidermidis clinical isolate 20-1 assessed as inhibition of bacterial growth incubated for 24 hrs by CLSI protocol based broth microdilution method; assay type: functional
Enterococcus faecium [19] = experiment: Antibacterial activity against Enterococcus faecium clinical isolate 20-15 assessed as inhibition of bacterial growth incubated for 24 hrs by CLSI protocol based broth microdilution method; assay type: functional
Enterococcus faecium [20] = experiment: Antibacterial activity against Enterococcus faecium clinical isolate 20-16 assessed as inhibition of bacterial growth incubated for 24 hrs by CLSI protocol based broth microdilution method; assay type: functional
Enterococcus faecium [21] = experiment: Antibacterial activity against vancomycin-resistant Enterococcus faecium 0649 assessed as reduction in bacterial growth by measuring fold change at 0.0625 to 64 ug/ml incubated for 24 hrs by CLSI protocol based broth microdilution method relative to vancomycin; assay type: functional; settings: dose 0.0625-64 µg/ml
Staphylococcus aureus [22] = experiment: Antibacterial activity against vancomycin-intermediate resistant Staphylococcus aureus Mu50 assessed as reduction in bacterial growth by measuring fold change at 0.0625 to 64 ug/ml incubated for 24 hrs by CLSI protocol based broth microdilution method relative to vancomycin; assay type: functional; settings: dose 0.0625-64 µg/ml

SMILES	MIC (Enterococcus faecalis [1]) [µg/mL]	MIC (Enterococcus faecalis [2]) [µg/mL]	MIC (Streptococcus pneumoniae [3]) [µg/mL]	MIC (Streptococcus pneumoniae [5]) [µg/mL]	MIC (Staphylococcus aureus [10]) [µg/mL]	MIC (Staphylococcus aureus [11]) [µg/mL]	MIC (Staphylococcus aureus [12]) [µg/mL]	MIC (Staphylococcus aureus [13]) [µg/mL]	MIC (Staphylococcus aureus [14]) [µg/mL]	MIC (Staphylococcus aureus [15]) [µg/mL]	MIC (Staphylococcus aureus [16]) [µg/mL]	MIC [17] [µg/mL]	MIC [18] [µg/mL]	MIC (Enterococcus faecium [19]) [µg/mL]	MIC (Enterococcus faecium [20]) [µg/mL]	fold change (FC) (Enterococcus faecium [21])	fold change (FC) (Staphylococcus aureus [22])	also measured
CN[C@H](CC(C)C)C(=O)N[C@H]1C(=O)N[C@@H](CC(N)=O)C(=O)N[C@H]2C(=O)N[C@H]3C(=O)N[C@H](C(=O)N[C@H](C(=O)O)c4cc(O)cc(O)c4-c4cc3ccc4O)[C@H](O)c3ccc(c(Cl)c3)Oc3cc2cc(c3O[C@@H]2O[C@H](CO)[C@@H](O)[C@H](O)[C@H]2O[C@H]2C[C@](C)(N)[C@H](O)[C@H](C)O2)Oc2ccc(cc2Cl)[C@H]1O [VANCOMYCIN]	1 (≈ 0.69 µM)	> 64	0.25 (≈ 0.173 µM)	0.5 (≈ 0.345 µM)	–	–	–	–	–	–	–	–	–	–	–	–	–	MIC (Streptococcus pneumoniae [4]): 0.25 µg/mL (≈ 0.173 µM); Activity (Staphylococcus aureus [6]): inactive; Activity (Enterococcus faecium [7]): inactive; Activity (Staphylococcus aureus [8]): Active
CC(C)C[C@H](C(=O)N[C@H]1C(=O)N[C@@H](CC(N)=O)C(=O)N[C@H]2C(=O)N[C@H]3C(=O)N[C@H](C(=O)N[C@H](C(=O)O)c4cc(O)cc(O)c4-c4cc3ccc4O)[C@H](O)c3ccc(c(Cl)c3)Oc3cc2cc(c3O[C@@H]2O[C@H](CO)[C@@H](O)[C@H](O)[C@H]2O[C@H]2C[C@](C)(N)[C@H](O)[C@H](C)O2)Oc2ccc(cc2Cl)[C@H]1O)N(C)C(=S)Nc1ccc2c(c1)C(=O)OC21c2ccc(O)cc2Oc2cc(O)ccc21	–	–	–	–	–	–	–	–	–	–	–	–	–	–	–	–	–	Activity (Staphylococcus aureus [9]): inactive
CN[C@H](CC(C)C)C(=O)N[C@H]1C(=O)N[C@@H](CC(N)=O)C(=O)N[C@H]2C(=O)N[C@H]3C(=O)N[C@H](C(=O)N[C@H](C(=O)NCCCc4cn(Cc5ccc(Cl)c(Cl)c5)nn4)c4cc(O)cc(O)c4-c4cc3ccc4O)[C@H](O)c3ccc(c(Cl)c3)Oc3cc2cc(c3O[C@@H]2O[C@H](CO)[C@@H](O)[C@H](O)[C@H]2O[C@H]2C[C@](C)(N)[C@H](O)[C@H](C)O2)Oc2ccc(cc2Cl)[C@H]1O	0.03 (≈ 0.0175 µM)	16 (≈ 9.32 µM)	≤ 0.015	≤ 0.015	0.03 (≈ 0.0175 µM)	0.125 (≈ 0.0728 µM)	0.125 (≈ 0.0728 µM)	≤ 0.015	0.125 (≈ 0.0728 µM)	2 (≈ 1.17 µM)	0.125 (≈ 0.0728 µM)	0.25 (≈ 0.146 µM)	0.25 (≈ 0.146 µM)	≤ 0.015	0.06 (≈ 0.035 µM)	8	8	–
C[C@H]1COc2c(N3CCN(C)CC3)c(F)cc3c(=O)c(C(=O)O)cn1c23 [LEVOFLOXACIN ANHYDROUS]	1 (≈ 2.77 µM)	64 (≈ 177 µM)	–	–	–	0.25 (≈ 0.692 µM)	0.125 (≈ 0.346 µM)	–	16 (≈ 44.3 µM)	8 (≈ 22.1 µM)	16 (≈ 44.3 µM)	4 (≈ 11.1 µM)	4 (≈ 11.1 µM)	> 64	64 (≈ 177 µM)	–	–	–
CN[C@H](CC(C)C)C(=O)N[C@H]1C(=O)N[C@@H](CC(N)=O)C(=O)N[C@H]2C(=O)N[C@H]3C(=O)N[C@H](C(=O)N[C@H](C(=O)NCCCc4cn(-c5ccc(OC(F)F)cc5)nn4)c4cc(O)cc(O)c4-c4cc3ccc4O)[C@H](O)c3ccc(c(Cl)c3)Oc3cc2cc(c3O[C@@H]2O[C@H](CO)[C@@H](O)[C@H](O)[C@H]2O[C@H]2C[C@](C)(N)[C@H](O)[C@H](C)O2)Oc2ccc(cc2Cl)[C@H]1O	≤ 0.015	16 (≈ 9.41 µM)	≤ 0.015	≤ 0.015	0.125 (≈ 0.0736 µM)	≤ 0.015	≤ 0.015	0.06 (≈ 0.0353 µM)	0.06 (≈ 0.0353 µM)	1 (≈ 0.588 µM)	–	0.25 (≈ 0.147 µM)	0.25 (≈ 0.147 µM)	≤ 0.015	0.125 (≈ 0.0736 µM)	8	8	–
